Test results: patent US10413632B2, “Cement products and methods of making and using the same” (Pioneer Surgical Technology, Inc., priority 2007, dated 2019)

Excerpt: The side chain amino groups of certain amino acid can serve as nucleophiles for the Michael addition to enones. Generally, amino acids are flaky or crystalline solids at room temperature, thus, they should be dissolved in a liquid to effectively participate in the set reaction.

Row | solubility (w/w) in DAB [%] | solubility (w/w) in PEI [%] | SMILES
1 | 29.4 | 46.46 | N[C@@H](Cc1c[nH]c2ccccc12)C(=O)O [TRP, L-Tryptophan]
2 |  | 18.8 | Nc1nc(N)c2nc[nH]c2n1 [DAP, diaminopurine]
3 | 19.5 | 18.2 | N[C@@H](CS)C(=O)O [CYS, L-cysteine]
4 | 28 | 61.24 | N[C@@H](Cc1ccccc1)C(=O)O [PHE, L-phenylalanine]
5 |  | 13.8 | Nc1cc(O)nc(N)n1 [DAHP, 2,4-diamino-6-hydroxypyrimidine]

Row | SMILES | solubility (w/w) in DAB [%] | solubility (w/w) in PEI [%]
6 | NCCCC[C@H](N)C(=O)O [LYS, L-Lysine] | 16.1 | 
